This note sets out measurements from EP4257135A1, “BENZIMIDAZOLE DERIVATIVES FOR PULMONARY ARTERIAL HYPERTENSION” (Justus-Liebig-Universität Gießen, priority 2022, dated 2023).

The structures appear in SMILES notation.

One experiment has as its system SuHx-PAH. Description: SUGEN5416/chronic hypoxia PAH rat model, right heart catheterisation and histology. The experiment is classed as in vivo, Ratten. Particulars: SuHx-PAH rats, three times weekly for two weeks, intratracheal nebulisation 275 nmol/kg. The source says: (§1) Um das therapeutische Potenzial der EP300/CREBBP-Hemmung in vivo weiter zu erforschen, haben die Erfinder Versuchstiere in drei verschiedenen Nagetiermodellen mit etablierter PAH mit der Substanz SGC-CBP30 behandelt, wobei SGC-CBP30 durch intra-tracheale Vernebelung über zwei Wochen lang dreimal wöchentlich verabreicht wurde. Es wurden folgende drei verschiedenen Nagetiermodelle für eine PAH (FHR-PAH, MCT-PAH und SuHx-PAH) getestet: • Fawn-hooded hypertensive Ratten (FHR): Das ist ein genetischer Rattenstamm, bei dem PAH im Alter spontan auftritt und der ähnliche PAH-Anomalien aufweist, wie sie bei IPAH bei Menschen nach 40 Wochen auftreten. • Durch Monocrotalin (MCT) induziertes PAH-Rattenmodell. • Ein SUGEN5416/chronische Hypoxie (SuHx)-Rattenmodell für PAH, bei dem die Ratten eine einmalige Injektion von SUGEN5416 erhielten und anschließend einer chronischen Hypoxie (10% O2) ausgesetzt wurden (SuHx-PAH).
(§2) Für die MCT-PAH wurden männlichen und weiblichen SD-Ratten (Sprague-Dawley-Ratten) subkutan 60 mg/kg MCT (Sigma, Katalog: C2401) injiziert, um PAH zu induzieren. Bei der SuHx-PAH erhielten SD-Ratten eine einmalige subkutane Injektion von SUGEN5416 (20 mg/kg) und wurden drei Wochen lang einer normobaren Hypoxie ausgesetzt, bevor sie für zwei Wochen an die Raumluft zurückkehrten. Zwei Wochen nach der MCT-Injektion bzw. drei Wochen nach der SUGEN5416-Injektion (sobald PAH festgestellt wurde) wurden die Ratten nach dem Zufallsprinzip in vier Gruppen eingeteilt und erhielten zwei Wochen lang dreimal wöchentlich entweder Vehikel (Verabreichung von 1 % Methylcellulose in destilliertem Wasser oder intratracheale Vernebelung von 4 % DMSO in PBS als Negativkontrolle), SGC-CBP30 (Verabreichung von 10 mg/kg in 1 % Methylcellulose + destilliertem Wasser) oder SGC-CBP30 (intratracheale Vernebelung von 275 nmol/kg in 4 % DMSO + PBS). Einjährige männliche und weibliche FHR-Ratten mit etablierter PAH wurden in dieselben vier Gruppen wie beim MCT-Modell eingeteilt und den selben Behandlungsmethoden unterzogen. Für die Vernebelung wurden die Ratten mit 3%igem Isofluran betäubt. Ein 16-Gauge-Katheter wurde in die Luftröhre eingeführt. Ein Vernebler (Aerogen) wurde an den Katheter angeschlossen, und für jede Behandlung wurde ein Volumen von 50 µl SGC-CBP30 oder dessen Vehikel (als Negativkontrolle) verabreicht. Nach zweiwöchiger Behandlung wurde eine Rechtsherzkatheteruntersuchung bei geschlossenem Thorax durchgeführt, um folgende hämodynamischen Daten zu erfassen: Systolischer Rechtsventrikulärer Druck (RVSP), mittlerer PA-Druck (mPAP), Herzzeitvolumen (CO) und Schlagvolumen (SV). Der Gesamtwiderstand der Lunge (TPR) wurde durch Division von mPAP durch CO ermittelt. Nach der hämodynamischen Messung wurden den Ratten Gewebeproben entnommen. Die Experimente wurden gemäß den Richtlinien des Canadian Council on Animal Care durchgeführt. Alle Protokolle wurden von der institutionellen Ethikkommission für Tiere (Tierschutzausschuss der Universität Laval) geprüft und genehmigt (Protokollnummer 2019-018-2). Alle Experimente folgten den Richtlinien für die präklinische Forschung bei PAH.
(§3) Der schwarze Balken zeigt 50 µm an. Die Daten sind als Mittelwert ± SD angegeben und die statistische Analyse wurde mit einem ungepaarten Student's t-Test durchgeführt. FHR, MCT und SU5416/chronische Hypoxie-Ratten: *P<0,05, **P<0,01 und ***P<0,001 gegenüber den mit Vehikel behandelten Gruppen. MCT-Rattenmodell: §P<0,05, §§P<0,01 und §§§P<0,001 gegenüber der unbehandelten Kontrollgruppe. • A: Schematische Darstellung des Versuchsaufbaus für die Behandlung von Fawn-hooded hypertensive Ratten (FHR) mit dem EP300/CREBBP-Inhibitor SGC-CBP30, der selektiv auf die Acetyltransferase EP300/CREBBP wirkt. […]

In a further experiment the test system is FHR-PAH. Description: Fawn-hooded hypertensive rat model of established PAH, right heart catheterisation and histology. Type of experiment: in vivo, Ratten. The settings on record: FHR-PAH rats, three times weekly for two weeks.
Source text: as §1, §2, §3

Where [1] appears, read: start three weeks after SUGEN5416.
[2] abbreviates: intratracheal nebulisation 275 nmol/kg, vs vehicle.

For `COc1ccc(CCc2nc3cc(-c4c(C)noc4C)ccc3n2C[C@H](C)N2CCOCC2)cc1Cl` [SGC-CBP30, 2-[2-(3-Chloro-4-methoxyphenyl)ethyl]-5-(3,5-dimethyl-1,2-oxazol-4-yl)-1-[(S)-2-(morpholin-4-yl)propyl]-1H-benzimidazole], in the experiment with SuHx-PAH (setting [1]), the RVSP result is “signifikanten Senkung” and the mPAP entry was “signifikanten Senkung”. Further, in the experiment with SuHx-PAH, the CO entry is “verbesserte CO und SV auch bei SUGEN5416/chronischer Hypoxie-PAH signifikant”, the SV result was “verbesserte CO und SV auch bei SUGEN5416/chronischer Hypoxie-PAH signifikant” and the “mediale Wanddicke der distalen PAs” value is listed as “signifikant verringert”. In the experiment with SuHx-PAH (mPAP divided by CO), the TPR entry is given as “signifikanten Senkung”. Besides, in the experiment with FHR-PAH, the “molekulare Marker für Myokardhypertrophie” value is on record as “signifikant abgeschwächt”. In addition, the “mediale Wanddicke der distalen PAs” value in the experiment on FHR-PAH (intratracheal nebulisation 275 nmol/kg) was “signifikant verringert”. Further, the TPR result in the experiment on FHR-PAH (intratracheal nebulisation 275 nmol/kg, mPAP divided by CO) is “signifikanten Senkung”. For the same compound, in the experiment with FHR-PAH (setting [2]), the CO result is “verbesserten sich nach der Behandlung mit der Substanz SGC-CBP30 bei FHR-PAH und MCT-PAH signifikant”, the RVSP result is reported as “signifikanten Senkung”, the SV result is “verbesserten sich nach der Behandlung mit der Substanz SGC-CBP30 bei FHR-PAH und MCT-PAH signifikant” and the mPAP result is “signifikanten Senkung”.
